{"source": "patent US6525001B1", "about": "“Substituted pyrimidine and pyridine herbicides” (Mid-American Commercialization Corporation, priority 1997, dated 2003)", "format_in_all_cases": "in vivo", "conditions_in_all_cases": "PREEMERGENCE", "key": {"[1]": {"test_system": "giant foxtail (Setaria faberii)", "assay": "Test C", "set-up": "key: 0 was no effect; 100 was complete control"}, "[2]": {"test_system": "downy brome (Bromus tectorum)", "assay": "Test D"}, "[3]": {"test_system": "field violet (Viola arvensis)", "assay": "Test D", "set-up": "key: 0 is no effect; 100 is complete control"}, "[4]": {"test_system": "jointed goatgrass (Aegilops cylindrica)", "assay": "Test D"}, "[5]": {"test_system": "kochia (Kochia scoparia)", "assay": "Test D"}, "[6]": {"test_system": "winter barley (Hordeum vulgare)", "assay": "Test D"}}}
{"smiles": "CCc1cnc(-n2ccc(C(F)(F)F)n2)nc1Cc1cccc(C(F)(F)F)c1", "note": "[Compound 46]", "values": [{"measurement": "Plant response rating, Giant foxtail", "setting": "[1]; Rate 35 g/ha", "value": 100}, {"measurement": "Plant response rating, Giant foxtail", "setting": "[1]; Rate 70 g/ha", "value": 100}, {"measurement": "Plant response rating, Giant foxtail", "setting": "[1]; Rate 140 g/ha", "value": 100}, {"measurement": "Plant response rating, Downy brome", "setting": "[2]; Rate 31 g/ha", "value": 70}, {"measurement": "Plant response rating, Downy brome", "setting": "[2]; Rate 62 g/ha", "value": 70}, {"measurement": "Plant response rating, Field violet", "setting": "[3]; Rate 31 g/ha", "value": 85}, {"measurement": "Plant response rating, Field violet", "setting": "[3]; Rate 62 g/ha", "value": 100}, {"measurement": "Plant response rating, Jointed goatgra", "setting": "[4]; Rate 31 g/ha", "value": 50}, {"measurement": "Plant response rating, Jointed goatgra", "setting": "[4]; Rate 62 g/ha", "value": 60}, {"measurement": "Plant response rating, Kochia", "setting": "[5]; Rate 31 g/ha", "value": 60}, {"measurement": "Plant response rating, Kochia", "setting": "[5]; Rate 62 g/ha", "value": 60}, {"measurement": "Plant response rating, Barley (winter)", "setting": "[6]; Rate 31 g/ha", "value": 50}, {"measurement": "Plant response rating, Barley (winter)", "setting": "[6]; Rate 62 g/ha", "value": 2}]}
{"smiles": "Cc1cnc(-n2cnc(C(F)(F)F)n2)nc1Cn1ccc(C(F)(F)F)n1", "note": "[Compound 51]", "values": [{"measurement": "Plant response rating, Downy brome", "setting": "[2]; Rate 31 g/ha", "value": 80}, {"measurement": "Plant response rating, Downy brome", "setting": "[2]; Rate 62 g/ha", "value": 80}, {"measurement": "Plant response rating, Field violet", "setting": "[3]; Rate 31 g/ha", "value": 65}, {"measurement": "Plant response rating, Field violet", "setting": "[3]; Rate 62 g/ha", "value": 65}, {"measurement": "Plant response rating, Jointed goatgra", "setting": "[4]; Rate 31 g/ha", "value": 60}, {"measurement": "Plant response rating, Jointed goatgra", "setting": "[4]; Rate 62 g/ha", "value": 90}, {"measurement": "Plant response rating, Kochia", "setting": "[5]; Rate 31 g/ha", "value": 85}, {"measurement": "Plant response rating, Kochia", "setting": "[5]; Rate 62 g/ha", "value": 80}, {"measurement": "Plant response rating, Barley (winter)", "setting": "[6]; Rate 31 g/ha", "value": 50}, {"measurement": "Plant response rating, Barley (winter)", "setting": "[6]; Rate 62 g/ha", "value": 90}]}
